One series concerns L1210 cells. On the set-up: method as in PMID 6320499. As to conditions: read-out: IC50 inhibiting L1210 cells; cited from earlier work.
The next series relates to Hela. On the set-up: method as in PMID 28509552. The following applies: Alamar Blue, 72 hrs; cited from earlier work. For orientation: Alamar Blue is a resazurin reagent that responds to reducing activity.
Series [1] relates to Jurkat. Nature of the series: Resazurin cell viability assay, Jurkat. It counts as cell-based, human. As to conditions: for cell viability: 100 μM, 48 h, resazurin (Figure 5B). An excerpt: (§1) Human leukemic cell lines (Kasumi-1, KG-1, MOLT-4, and Jurkat) were obtained from the American Type Culture Collection (ATCC). KG-1 cells were maintained in Iscove’s modified Dulbecco’s medium (IMDM) supplemented with 20% fetal bovine serum (FBS) (Cultilab, Campinas, Brazil), according to criteria adopted by the cell bank (https://www.atcc.org/products/ccl-246#detailed-product-information) accessed on 10 November 2021, whereas the other lineages were maintained in Roswell Park Memorial Institute medium (RPMI 1640) (Sigma Aldrich, St. Louis, MI, USA) supplemented with 10% FBS. All cells were cultured in a medium containing 100 U/mL penicillin (Sigma Aldrich, St. Louis, MI, USA) and 100 μg/mL streptomycin (Sigma Aldrich, St. Louis, MI, USA) and in a humidified incubator containing 5% CO2 at 37 °C. Passage numbers for all leukemic cell lines were between 3 and 6.
(§2) A resazurin assay (Sigma Aldrich, St. Louis, MI, USA) was used to screen and assess the activity of extracts, fractions, and isolated compounds against leukemic cell lines. Briefly, 10^5 cells/mL were seeded in 96-well plates containing supplemented medium. Cells were treated in the presence or absence of compounds for 48 h using a high concentration (100 µg/mL or 100 µM to isolated compounds) or a concentration–response curve (100, 50, 25, 12.5, 6.25, 3.12, 1.56, and 0.78 µM) after 24 h of treatment with isolated compounds was constructed. After treatment, the cell culture medium was removed, and 100 µL of medium with 10% Resazurin solution was added; after 4 h of incubation, the fluorescence was measured (excitation 530 nm, emission 590 nm) in a FlexStation 3 microplate reader (Molecular Devices, San Jose, CA, USA). Each experiment was performed in triplicate.

For series [2], the system named is Kasumi-1. Nature of the series: Resazurin cell viability assay, Kasumi-1. It counts as cell-based, human. The following applies: for cell viability: Kasumi-1, 100 μM, 48 h, resazurin (Figure 5A).
Description: as §1, §2

For series [3], the system named is Jurkat. Also on record: method as in PMID 28509552. The following applies: Alamar Blue, 72 hrs; cited from earlier work.
For a further series, the system named is K-562. Also on record: method as in PMID 28509552. The following applies: Alamar Blue, 72 hrs; cited from earlier work.
Series [4] deals with ACL, an ATP citrate lyase. On the set-up: method as in PMID 27997879. As to conditions: read-out: IC50 inhibitory activity against ACL; cited from earlier work.
Series [5] has as its system Kasumi-1. Description: Cell cycle analysis (PI) and cell count, Kasumi-1. It counts as cell-based, human. The following applies: Kasumi-1, 10 μM, 72 h. The procedure: The distribution of cell cycle phases was determined by propidium iodide (PI) staining and flow cytometry analysis. Kasumi-1 and Jurkat cells (10^5/mL) were treated with 10 (10 μM or 1 μM, respectively) for 72 h. Then, the cells were fixed and permeabilized as previously described and treated with 4 μg/mL RNase (Sigma Aldrich, St. Louis, MI, USA) for 45 min at 37 °C. For DNA labeling, cells were incubated with 5 μg/mL of PI (Sigma Aldrich, St. Louis, MI, USA). Percentages of cells within cell cycle compartments (G1/G0, S, and G2/M) were performed using an Accuri C6 flow cytometer (BD Biosciences, Mississauga, Canadá). A total of 40,000 events were acquired.

Another series has as its system HL-60. On the set-up: method as in doi:10.1016/j.cclet.2017.09.006. The following applies: acute myeloid leukemia cell line; read-out: IC50 against the HL-60 lineage; cited from earlier work.
The subject of series [6] is Kasumi-1. Description: Annexin V-FITC/7-AAD flow cytometry assay, Kasumi-1. It counts as cell-based, human. As to conditions: Kasumi-1, 50 μM, 24 h. As to the method: (§3) An Annexin V-FITC/7-AAD double staining assay was performed to evaluate the proapoptotic effect of 10. Kasumi-1 and Jurkat cells (10^5/mL) were treated for 24 h with EC50, 50, or 50 µM 10, respectively, or Staurosporine (1 µM) (Sigma Aldrich, St. Louis, MI, USA). Then, the cells were resuspended in annexin binding buffer (0.14 M NaCl, 2.5 mM CaCl2, 0.01 M HEPES, pH 7.4) and incubated at room temperature with 1 μL and 2 μL of annexin V-FITC and 7-AAD (Becton Dickinson, Covington, GA, USA), respectively, for 30 min. Data were analyzed using FlowJo V10 (Becton Dickinson—BD, USA) software; 20,000 events were collected per sample.
On the technique in general: Flow cytometry measures light scatter and fluorescence of single cells or particles in a stream.

Series [7] deals with cleaved caspase-3 in Kasumi-1. Nature of the series: Intracellular labeling of cleaved caspase-3 by flow cytometry, Kasumi-1. It counts as cell-based, human. The following applies: Kasumi-1, 50 μM, 24 h. The procedure:
(§4) Kasumi-1 and Jurkat cells (10^5/mL) were treated for 24 h with EC50, 50, or 50 µM 10, respectively. Then, cells were fixed with BD Cytofix (BD Biosciences, Mississauga, ON, Canadá) for 15 min, washed with BD Perm/Wash buffer, and permeabilized with Perm Buffer III (BD, USA) for 30 min at room temperature. In order to label cleaved caspase-3 protein (Cell Signaling, Danvers, MA, USA), cells were incubated for 1 h with primary antibody (1:800). Anti-rabbit IgG secondary antibodies conjugated with Alexa Fluor 488 (Thermo Fisher Scientific, Waltham, MA, USA) (1:1000) were incubated for at least 40 min, and the fluorescence was measured using an Accuri C6 flow cytometer and FlowJo software to analyze the results; 20,000 events were collected per sample. Protein analyses were performed using GM fluorescence intensity.

Series [8] deals with CD11b expression in Kasumi-1 cells. Nature of the series: Cell differentiation by immunophenotyping (CD11b). Format: cell-based, human. The following applies: Kasumi-1, 10 μM, 72 h. The procedure: Cells (10^5/mL) were treated with 10 μM Compound 10 for 72 h. Then, the cells were collected and stained with CD11b-Cy7/PE (2 μL) (BD, USA). The measurements of fluorescence intensity were performed using an Accuri C6 flow cytometer (BD Biosciences, Mississauga, Canadá); 40,000 events were collected per sample. Results were expressed as GM fluorescence intensity.

In series [9] the test system is Jurkat. Description: Cell cycle analysis (PI) and cell count, Jurkat. Format: cell-based, human. As to conditions: 10 μM, 72 h. As to the method:
The distribution of cell cycle phases was determined by propidium iodide (PI) staining and flow cytometry analysis. […] Then, the cells were fixed and permeabilized as previously described and treated with 4 μg/mL RNase (Sigma Aldrich, St. Louis, MI, USA) for 45 min at 37 °C. For DNA labeling, cells were incubated with 5 μg/mL of PI (Sigma Aldrich, St. Louis, MI, USA). Percentages of cells within cell cycle compartments (G1/G0, S, and G2/M) were performed using an Accuri C6 flow cytometer (BD Biosciences, Mississauga, Canadá). A total of 40,000 events were acquired.

Series [10] relates to Jurkat. Description: Annexin V-FITC/7-AAD flow cytometry assay, Jurkat. As to conditions: 50 μM, 24 h. Format: cell-based, human. The procedure: as §3
For series [11], the system named is cleaved caspase-3 in Jurkat. Nature of the series: Intracellular labeling of cleaved caspase-3 by flow cytometry, Jurkat. Format: cell-based, human. As to conditions: 50 μM, 24 h. The procedure:
as §4

For the next series, the system named is normal PBMC cells. Nature of the series: Resazurin cell viability assay, normal PBMC. The following applies: concentration-response curve, 24 h. Format: cell-based, human. The procedure:
Peripheral blood mononuclear cells (PBMCs) were obtained from three healthy donors. Human monocytes were collected from healthy donors after informed patient consent was obtained. Separation of mononuclear cells was performed by gradient centrifugation methods using Ficoll Histopaque-1077 (1.077 g/cm^3) (Sigma Aldrich, St. Louis, MI, USA) following the manufacturer’s instructions. The use of human samples was approved by the local Ethical Committee of the Universidade Federal de Mato Grosso do Sul (CAAE35853720.2.0000.0021). Cells were maintained in IMDM supplemented with 20% FBS, 100 U/mL penicillin, and 100 μg/mL streptomycin in a humidified atmosphere at 37 °C in 5% CO2.
A resazurin assay (Sigma Aldrich, St. Louis, MI, USA) was used to screen and assess the activity of extracts, fractions, and isolated compounds against leukemic cell lines. Briefly, 10^5 cells/mL were seeded in 96-well plates containing supplemented medium. […] After treatment, the cell culture medium was removed, and 100 µL of medium with 10% Resazurin solution was added; after 4 h of incubation, the fluorescence was measured (excitation 530 nm, emission 590 nm) in a FlexStation 3 microplate reader (Molecular Devices, San Jose, CA, USA). […]

As usually defined, the IC50 is the point on the concentration scale where inhibition reaches its midpoint. With `Cc1cc(O)c2c(c1)C(=O)c1cc(O)cc(O)c1C2=O` [Compound 3, emodin], in the series on L1210 cells, the IC50 was 35 µM.

On to `O=C1c2cc(CO)cc(O)c2C(=O)c2c1cc(O)c(Cl)c2O` [Compound 7, 2-chloro-1,3,8-trihydroxy-6-(hydroxymethyl)anthracene-9,10-dione], for which, in the series with Hela, the “activity against Hela” value is “inactive”. Further, the cell viability result with Jurkat [1] and in the series on Kasumi-1 [2] was “reduction in cell viability” each time. In the series on Jurkat [3], the “activity against Jurkat” value was “inactive”. The “activity against K-562” value in the series on K-562 was “inactive”.

Consider `Cc1cc(O)c2c(c1)C(=O)c1cc(O)c(Cl)c(O)c1C2=O` [Compound 8, 7-chloroemodin], for which the IC50 in series [4] was 12.6 µM. Besides, the cell viability entry with Jurkat [1] and in the series on Kasumi-1 [2] was “reduction in cell viability” throughout.

As for `CSC12CC3=COC=CC(OC(C)=O)C3N1C(=O)C1(SC)CC3=COC=CC(OC(C)=O)C3N1C2=O` (stereo not shown) [Compound 9, bisdethiobis(methylthio)acetylaranotine], the cell viability entry with Jurkat [1] and in the series on Kasumi-1 [2] was “reduction in cell viability” throughout.

Usually EC50 stands for the concentration needed to bring the measured effect to its halfway point. A lower EC50 goes with greater potency. As for `C=CC(C)(C)c1[nH]c2ccccc2c1CC1NC(=O)C(Cc2c(C(C)(C)C=C)[nH]c3ccccc23)NC1=O` (stereo not shown) [Compound 10, fellutanine C], the “cell proliferation (cell count)” value with Kasumi-1 [5] and in the series on Jurkat [9] was “reduction in cell proliferation” throughout. Besides, the “cell viability at the cell cycle concentration” value in the series with Kasumi-1 [5] and with Jurkat [9] was “did not observe a reduction in cell viability” in each case. The cell cycle distribution entry with Kasumi-1 [5] (PI staining) and in the series on Jurkat [9] (PI staining) was “cell cycle arrest in G0/G1” in each case. In the series on HL-60, the IC50 was 9.34 µM. For the same compound, the cell viability result with Jurkat [1] and in the series with Kasumi-1 [2] was “reduction in cell viability” each time. Besides, the EC50 with Jurkat [1] (Homo sapiens, concentration-response curve, 24 h, resazurin) worked out at 50 µM; in the series with Kasumi-1 [2] (Homo sapiens, Kasumi-1, concentration-response curve, 24 h, resazurin), 50 µM. In addition, the “cell death mode (Annexin V-FITC and 7-AAD staining)” value in the series with Kasumi-1 [6] was “predominant apoptosis staining (Anx-FITC+/7 AAD-)”; in the series with Jurkat [10], “predominant double staining (late apoptosis and necrosis-like)”. For the same compound, the cleaved-caspase-3 entry in [7] and in series [11] was “increased cleaved-caspase-3” in each case. Further, the “expression of mature myeloid marker CD11b” value in series [8] was “did not produce an increase in the expression of CD11b”. Moreover, the “cytotoxicity effect on normal PBMC cells” value in the series on normal PBMC cells was “did not show a cytotoxicity effect”.
